Measurements from patent US20080188439A1, “Directed metabolism of compounds by glucuronidation and sulfonation donors to decrease toxicity” (priority 2006, published 2008).

Columns and labels:
C57B16/J male mice [1] = details: APAP 4 mMol/kg (600 mg/kg) IP plus 0.2 ml physiological saline; three of eight animals
C57B16/J male mice [2] = test: Dose-response of APAP toxicity (LD60) in mice; assay type: in vivo
Protocol: In prior experiments in the laboratory, the LD60, of APAP was determined to be about 600 mgs/kg. The molecular weight of APAP is 151; therefore, the LD60, was about 4 mMol/Kg.

[3] = cited from earlier work
[4] = cited from earlier work; remark: listed apart in the source
[5] = test system: UDP-glucose dehydrogenase; details: UDP-glucose dehydrogenase reaction; cited from earlier work

For `CC(=O)Nc1ccc(O)cc1` [APAP, N-acetyl-p-aminophenol], which “survival at 24 hours, APAP/saline (control group)” value (C57B16/J male mice [1]) is on record?
The value was 37.5%.

And the LD60 (C57B16/J male mice [2]; converted with molecular weight 151)?
The LD60 was “about 4 mMol/Kg”.

And the LD60 (C57B16/J male mice [2]; prior experiments in the laboratory)?
The LD60 was “about 600 mgs/kg”.

What about the “share of circulating acetaminophen undergoing Phase II glucuronide conjugation” value ([3]; adult, normal (non-saturated) conditions) of the same compound?
The value was “approximately 55%”.

What about the “share of circulating acetaminophen undergoing Phase II sulfonate conjugation” value ([3]; adult) of the same compound?
Its value is “approximately 30%”.

And the “share of circulating acetaminophen undergoing Phase I metabolism by cytochrome P-450 enzymes” value ([3]; normal conditions)?
Its value is “Five”.

What about the “median half-life after an overdose” value ([4]; 112 patients, overdose) of the same compound?
Its value is 5.4 h.

What about the “time of maximal blood concentrations after ingestion” value ([4]; human, oral) of the same compound?
Its value is 20 to 80 min.

And the “experimental half-life (t0.5 β)” value ([4]; human, single oral dose of 1-3 gms)?
Its value is 1.75 to 2.67 h.

What about the volume of distribution ([4]; human) of the same compound?
Its volume of distribution is “approximately 0.95 L/Kg”.

And the “share of a therapeutic dose biotransformed in the liver” value ([4]; therapeutic dose)?
Its value is 95%.

And the “share of the toxic dose excreted in the first 24 hours” value ([4]; toxic dose, first 24 hours)?
Its value is “over 90%”.

For `NC(=O)c1ccc[n+]([C@@H]2O[C@H](COP(=O)([O-])OP(=O)(O)OC[C@H]3O[C@@H](n4cnc5c(N)ncnc54)[C@H](O)[C@@H]3O)[C@@H](O)[C@H]2O)c1` [NAD^+, nicotinamide adenine dinucleotide], which Km [5] is on record?
Its Km is 424 µM.
